Source: ChEMBL document CHEMBL5038624, “Construction and activity evaluation of novel dual-target (SE/CYP51) anti-fungal agents containing amide naphthyl structure” (Eur J Med Chem, 2022)
Values after ≈ are worked out from the molar mass of the structure shown. Active and inactive are the calls of the source. No cut-off for these calls is given here.

How the values were obtained:
Aspergillus fumigatus = assay: Antifungal activity against Aspergillus fumigatus KM8001 assessed as reduction in fungal growth incubated for 72 hrs by CLSI protocol based broth microdilution method; format: functional
[1] = Toxicity in mouse assessed as effect on blood urea nitrogen level; conditions: in vivo
Candida albicans [2] = assay: Inhibition of SE/CYP51 in Candida albicans ATCC SC5314 assessed as ergosterol level incubated for 48 hrs by LC/MS analysis; parameters: scale not given: the % may be the effect or the level left
Candida albicans [3] = assay: Induction of apoptosis against Candida albicans ATCC SC5314 assessed as necrotic cells measured after 48 hrs by Annexin V-FITC/propidium iodide staining based flow cytometry (reference value: 18.22 %); format: functional
[4] = Toxicity in mouse assessed as effect on alanine transaminase level; conditions: in vivo
[5] = target: Lanosterol 14-alpha demethylase (Candida albicans (strain SC5314 / ATCC MYA-2876) (Yeast), UniProt P10613); assay: Inhibition of CYP51 in Candida albicans ATCC SC5314 measured after 30 mins by HPLC analysis
Lanosterol 14-alpha demethylase, sequence (P10613 whole entry): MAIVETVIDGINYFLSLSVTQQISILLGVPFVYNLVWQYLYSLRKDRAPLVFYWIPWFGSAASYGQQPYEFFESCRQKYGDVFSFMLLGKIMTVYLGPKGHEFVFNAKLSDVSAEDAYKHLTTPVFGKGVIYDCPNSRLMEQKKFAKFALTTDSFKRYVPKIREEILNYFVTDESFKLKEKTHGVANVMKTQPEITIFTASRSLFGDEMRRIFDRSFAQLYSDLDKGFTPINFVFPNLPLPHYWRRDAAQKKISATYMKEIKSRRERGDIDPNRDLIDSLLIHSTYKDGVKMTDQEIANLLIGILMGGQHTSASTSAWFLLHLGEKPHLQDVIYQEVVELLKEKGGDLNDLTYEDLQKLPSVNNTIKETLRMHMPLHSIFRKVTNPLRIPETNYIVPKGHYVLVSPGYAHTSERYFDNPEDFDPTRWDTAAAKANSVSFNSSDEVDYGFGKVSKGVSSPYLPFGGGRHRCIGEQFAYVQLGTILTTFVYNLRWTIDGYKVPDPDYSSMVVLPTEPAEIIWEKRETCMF

[6] = Toxicity in mouse infected with Candida albicans ATCC SC5314 assessed as effect on spleen at 4 mg/kg,ip administrated every 2 days for 14 days by hematoxylin-eosin staining based assay; format: organism-based; conditions: in vivo, 336 h, time 14 day
Nakaseomyces glabratus = assay: Antifungal activity against Candida glabrata ATCC 0001 assessed as reduction in fungal growth incubated for 72 hrs by CLSI protocol based broth microdilution method; format: functional
[7] = Toxicity in mouse assessed as effect on aspartate transaminase level; conditions: in vivo
Candida albicans [8] = assay: Antifungal activity against Candida albicans ATCC SC5314 infected in mouse assessed as reduction on endothelial fungal infection at 4 mg/kg,ip administrated every 2 days for 14 days by hematoxylin-eosin staining based assay; format: functional, organism-based; conditions: time 14.0 day
Candida albicans [9] = assay: Antifungal activity against Candida albicans SC5314 assessed as reduction in fungal growth incubated for 72 hrs by CLSI protocol based broth microdilution method; format: functional
Candida albicans [10] = assay: Inhibition of SE/CYP51 in Candida albicans ATCC SC5314 assessed as eburicol level incubated for 48 hrs by LC/MS analysis; parameters: scale not given: the % may be the effect or the level left
Candida albicans [11] = assay: Antifungal activity against Candida albicans strain 632 assessed as reduction in fungal growth incubated for 72 hrs by CLSI protocol based broth microdilution method; format: functional
Candida albicans [12] = assay: Antifungal activity against Candida albicans ATCC SC5314 assessed as disappearance of fungal cell boundaries incubated for 96 hrs by TEM analysis; format: functional, organism-based
Candida albicans [13] = assay: Inhibition of SE/CYP51 in Candida albicans ATCC SC5314 assessed as unknown sterol level incubated for 48 hrs by LC/MS analysis; parameters: scale not given: the % may be the effect or the level left
Candida albicans [14] = assay: Antifungal activity against Candida albicans strain 901 assessed as reduction in fungal growth incubated for 72 hrs by CLSI protocol based broth microdilution method; format: functional
Candida albicans [15] = assay: Antifungal activity against Candida albicans ATCC SC5314 assessed as irregular cell structure incubated for 72 hrs by TEM analysis; format: functional, organism-based
Candida tropicalis = assay: Antifungal activity against Candida tropicalis ATCC 1369 assessed as reduction in fungal growth incubated for 72 hrs by CLSI protocol based broth microdilution method; format: functional
Candida albicans [16] = assay: Induction of apoptosis against Candida albicans ATCC SC5314 assessed as late apoptotic cells measured after 48 hrs by Annexin V-FITC/propidium iodide staining based flow cytometry (reference value: 0.71 %); format: functional
Candida albicans [17] = assay: Antifungal activity against Candida albicans ATCC SC5314 assessed as decrease in fungal cell density by fluorescence microscopy; format: functional, organism-based
[18] = Toxicity in mouse infected with Candida albicans ATCC SC5314 assessed as effect on heart at 4 mg/kg,ip administrated every 2 days for 14 days by hematoxylin-eosin staining based assay; format: organism-based; conditions: in vivo, 336 h, time 14 day
Candida albicans [19] = assay: Antifungal activity against Candida albicans strain 904 assessed as reduction in fungal growth incubated for 72 hrs by CLSI protocol based broth microdilution method; format: functional
[20] = Toxicity in mouse infected with Candida albicans ATCC SC5314 assessed as effect on liver at 4 mg/kg,ip administrated every 2 days for 14 days by hematoxylin-eosin staining based assay; format: organism-based; conditions: in vivo, 336 h, time 14 day
[21] = Toxicity in mouse infected with Candida albicans ATCC SC5314 assessed as effect on lung at 4 mg/kg,ip administrated every 2 days for 14 days by hematoxylin-eosin staining based assay; format: organism-based; conditions: in vivo, 336 h, time 14 day
Mus musculus = assay: Antifungal activity against Candida albicans ATCC SC5314 infected in mouse assessed as increase in body weight at 4 mg/kg,ip administrated every 2 days for 14 days; format: functional, organism-based; conditions: time 14.0 day
[22] = Inhibition of SE in Candida albicans ATCC SC5314 measured after 30 mins by HPLC analysis
Pichia kudriavzevii = assay: Antifungal activity against Candida krusei ATCC 6258 assessed as reduction in fungal growth incubated for 72 hrs by CLSI protocol based broth microdilution method; format: functional
Candida albicans [23] = assay: Induction of apoptosis against Candida albicans ATCC SC5314 assessed as mild apoptotic cells measured after 48 hrs by Annexin V-FITC/propidium iodide staining based flow cytometry (Rvb =0.29 %); format: functional
Candida albicans [24] = assay: Antifungal activity against Candida albicans strain 17 assessed as reduction in fungal growth incubated for 72 hrs by CLSI protocol based broth microdilution method; format: functional
Candida albicans [25] = assay: Inhibition of SE/CYP51 in Candida albicans ATCC SC5314 assessed as squalene level incubated for 48 hrs by LC/MS analysis; parameters: scale not given: the % may be the effect or the level left
[26] = Toxicity in mouse infected with Candida albicans ATCC SC5314 assessed as effect on kidney at 4 mg/kg,ip administrated every 2 days for 14 days by hematoxylin-eosin staining based assay; format: organism-based; conditions: in vivo, 336 h, time 14 day
Candida albicans [27] = assay: Antifungal activity against Candida albicans ATCC SC5314 infected in mouse assessed as decrease in fungal infection at 4 mg/kg,ip administrated every 2 days for 14 days; format: functional, organism-based; conditions: time 14.0 day
Candida albicans [28] = assay: Induction of apoptosis against Candida albicans ATCC SC5314 assessed as viable cells measured after 48 hrs by Annexin V-FITC/propidium iodide staining based flow cytometry (reference value: 80.78 %); format: functional
Candida albicans [29] = assay: Antifungal activity against Candida albicans strain CaR assessed as reduction in fungal growth incubated for 72 hrs by CLSI protocol based broth microdilution method; format: functional
Candida albicans [30] = assay: Inhibition of SE/CYP51 in Candida albicans ATCC SC5314 assessed as lanosterol level incubated for 48 hrs by LC/MS analysis; parameters: scale not given: the % may be the effect or the level left
Candida albicans [31] = assay: Antifungal activity against Candida albicans ATCC SC5314 assessed as irregular cell structure incubated for 48 hrs by TEM analysis; format: functional, organism-based

MIC50 (Aspergillus fumigatus): 2 µg/mL (≈ 5.43 µM)
Activity (Candida albicans [2]): 19.2%
IC50 [5]: 209 nM
MIC50 (Nakaseomyces glabratus): 0.25 µg/mL (≈ 0.679 µM)
MIC50 (Candida albicans [9]): 0.125 µg/mL (≈ 0.339 µM)
Activity (Candida albicans [10]): 32.9%
MIC50 (Candida albicans [11]): 2 µg/mL (≈ 5.43 µM)
Activity (Candida albicans [13]): 7%
MIC50 (Candida albicans [14]): 1 µg/mL (≈ 2.71 µM)
MIC50 (Candida tropicalis): 0.125 µg/mL (≈ 0.339 µM)
MIC50 (Candida albicans [19]): 2 µg/mL (≈ 5.43 µM)
IC50 [22]: 930 nM
MIC50 (Pichia kudriavzevii): 0.25 µg/mL (≈ 0.679 µM)
MIC50 (Candida albicans [24]): 2 µg/mL (≈ 5.43 µM)
Activity (Candida albicans [25]): 29.5%
MIC50 (Candida albicans [29]): 2 µg/mL (≈ 5.43 µM)
Activity (Candida albicans [30]): 11.4%
SMILES: O=C(/C=C/c1cccc2ccccc12)NC(Cn1cncn1)c1ccccc1 (stereo unspecified)
Activity [1]: 6.1 mmol/L
Activity (Candida albicans [3]): 46.23%
Activity [4]: 101.6 IU/L
Activity [6]: Non-Toxic
Activity [7]: 118 IU/L
Activity (Candida albicans [8]): Active
Activity (Candida albicans [12]): Active
Activity (Candida albicans [15]): Active
Activity (Candida albicans [16]): 1.24%
Activity (Candida albicans [17]): Active
Activity [18]: Non-Toxic
Activity [20]: Non-Toxic
Activity [21]: Non-Toxic
Activity (Mus musculus): Active
Activity (Candida albicans [23]): 0.26%
Activity [26]: Non-Toxic
Activity (Candida albicans [27]): Active
Activity (Candida albicans [28]): 52.27%
Activity (Candida albicans [31]): Active
